From EPA's ToxValDB 9.5
Values joined by “and” are separate entries in the source; they are usually repeats but may differ in a detail not shown here. Identical values can stand only once.

Tested on: Rattus norvegicus
Conditions: inhalation; for NEL / LEL: Crl:CD(SD) BR
[1] = chronic, duration: 2 years, M, Blood: Monocytes + Liver: Aspartate Aminotransferase (AST), Blood
[2] = chronic, duration: 2 years, M, Heart: Heart Weight, Absolute + Liver: Focal Liver Necrosis + Lung: Cholesterol Cleft/Granuloma in Lung
[3] = chronic, duration: 2 years, M, Kidney: Renal Tubular Pigment + Whole Body: Body Weight Change + Whole Body: Terminal Body Weight, Absolute
[4] = chronic, duration: 2 years, M, Kidney: Urobilinogen, Urine
[5] = reproduction developmental, duration: 9 days, F, Crl: CD BR, generation: P0, P0: General Toxicity: Whole Body: Maternal Body Weight Change + P0: General Toxicity: Whole Body: Mortality + P0: Nervous: Whole Body: …
[6] = reproduction developmental, duration: 9 days, F, Crl:CD BR, generation: P0, P0: Developmental: Uterus: Implantation + P0: Developmental: Uterus: Post-Implantation Loss + P0: Developmental: Uterus: Pre-Implantation …
[7] = reproduction developmental, duration: 9 days, F, Crl:CD BR, generation: P0, P0: Developmental: Uterus: Post-Implantation Loss + P0: Developmental: Uterus: Resorptions, Mean/Litter + P0: General Toxicity: Whole Body: …
[8] = reproduction developmental, duration: 9 days, F, generation: P0, P0: Ovary: Corpora Lutea
[9] = reproduction developmental, duration: 9 days, F, generation: P0, P0: Whole Body: Clinical Observations + P0: Whole Body: Maternal Body Weight Change
[10] = reproduction developmental, duration: 9 days, F, generation: P0, P0: Whole Body: Lethargic
[11] = subchronic, duration: 90 days, F, Crl:CD BR, General Toxicity: Whole Body: Body Weight Change + General Toxicity: Whole Body: Clinical Observations + Hepatic: Liver: Alkaline …
[12] = subchronic, duration: 90 days, F, Crl:CD BR, Nervous: Brain: Brain Weight, Absolute + Nervous: Brain: Brain Weight, Relative + Whole Body: Whole Body: Functional Observation Battery (…
[13] = subchronic, duration: 90 days, F, Liver: Alkaline Phosphatase (ALP), Blood
[14] = subchronic, duration: 90 days, M, Crl:CD BR, General Toxicity: Whole Body: Body Weight Change + General Toxicity: Whole Body: Clinical Observations + Hepatic: Liver: Liver Weight, …
[15] = subchronic, duration: 90 days, M, Crl:CD BR, Nervous: Brain: Brain Weight, Absolute + Nervous: Brain: Brain Weight, Relative + Whole Body: Whole Body: Functional Observation Battery (…
[16] = subchronic, duration: 90 days, M, Blood: Triglycerides (TRIG), Blood + Whole Body: Function Observation Battery (FOB)

Structure (SMILES): FC(Cl)C(F)(F)F (stereo unspecified) [2-Chloro-1,1,1,2-tetrafluoroethane]
- NEL (chronic, duration: 2 years, M, Blood: Abnormal Lymphocytes + Blood: Bands + Blood: Basophils + Blood: Calcium (CA), Blood + Blood: Eosinophils + Blood: Globulin (G), Blood…): 279000 mg/m3
- LEL (chronic, duration: 2 years, M, Blood: Chloride (CL), Blood + Liver: Alanine Aminotransferase (ALT), Blood): 11200 mg/m3
- LEL [1]: 55800 mg/m3
- NEL [1]: 11200 mg/m3
- LEL [2]: 279000 mg/m3
- NEL [2]: 55800 mg/m3
- LEL [3]: 55800 mg/m3
- NEL [3]: 11200 mg/m3
- LEL [4]: 279000 mg/m3
- NEL [4]: 55800 mg/m3
- LEL (chronic, duration: 2 years, M, Liver: Liver Weight, Absolute + Spleen: Spleen Weight, Absolute): 11200 mg/m3
- LOAEL (developmental, duration: 9 days, M/F, Crl: CD BR, generation: F1, F1: Developmental: Uterus: Dead Fetuses + F1: Developmental: Uterus: Fetuses, Live + F1: General Toxicity: Whole Body: Body Weight, Fetal): 279000 mg/m3
- NOAEL (developmental, duration: 9 days, M/F, Crl:CD BR, generation: F1, F1: Developmental: Head: Head Abnormalities + F1: Developmental: Whole Body: External Abnormalities + F1: Developmental: Whole Body: Live …): 27900 mg/m3 and 83700 mg/m3
- NEL (developmental, duration: 9 days, M/F, generation: F1, F1: Head: Head Abnormalities + F1: Whole Body: External Abnormalities + F1: Whole Body: Live Pups Born + F1: Whole Body: Skeletal …): 279000 mg/m3
- LEL (developmental, duration: 9 days, M/F, generation: F1, F1: Whole Body: Pup Weight Relative to Litter): 27900 mg/m3
- LOAEL (reproduction developmental, duration: 9 days, F, Crl: CD BR, generation: P0, P0: Developmental: Uterus: Implantation + P0: Developmental: Uterus: Resorptions, Early + P0: Developmental: Uterus: Resorptions, Total + P0…): 279000 mg/m3
- LOAEL [5]: 279000 mg/m3
- NOAEL [5]: 55800 mg/m3
- LOAEL [6]: 83700 mg/m3
- NOAEL [6]: 27900 mg/m3
- NOAEL (reproduction developmental, duration: 9 days, F, Crl:CD BR, generation: P0, P0: Developmental: Uterus: Implantation + P0: Developmental: Uterus: Pre-Implantation Loss + P0: Reproductive: Ovary: Corpora Lutea): 279000 mg/m3
- LOAEL [7]: 279000 mg/m3
- NOAEL [7]: 83700 mg/m3
- LEL [8]: 83700 mg/m3
- NEL [8]: 27900 mg/m3
- LEL (reproduction developmental, duration: 9 days, F, generation: P0, P0: Uterus: Implantation): 27900 mg/m3
- NEL (reproduction developmental, duration: 9 days, F, generation: P0, P0: Uterus: Implantation + P0: Uterus: Resorptions, Early + P0: Uterus: Resorptions, Total + P0: Whole Body: Maternal Body Weight Change + …): 279000 mg/m3
- NEL (reproduction developmental, duration: 9 days, F, generation: P0, P0: Uterus: Post-Implantation Loss + P0: Uterus: Pre-Implantation Loss + P0: Uterus: Resorptions, Mean/Litter + P0: Whole Body: Delivered …): 279000 mg/m3
- LEL [9]: 279000 mg/m3
- NEL [9]: 83700 mg/m3
- LEL [10]: 279000 mg/m3
- NEL [10]: 55800 mg/m3
- NEL (reproduction developmental, duration: 9 days, M/F, generation: P0, P0: Uterus: Fetuses, Dead + P0: Uterus: Fetuses, Live + P0: Whole Body: Body Weight, Fetal): 279000 mg/m3
- NEL (short-term, duration: 4 weeks, F, Adrenal: Adrenal Gland Weight, Absolute + Adrenal: Adrenal Gland Weight, Relative + Bladder: Urinary Bladder Calculus + Bladder: Urinary …): 279000 mg/m3
- NEL (short-term, duration: 4 weeks, M, Adrenal: Adrenal Gland Weight, Absolute + Adrenal: Adrenal Gland Weight, Relative + Blood: Abnormal Lymphocytes + Blood: Band Neutrophils + …): 279000 mg/m3
- LOAEL (subchronic, duration: 90 days, F, Crl:CD BR, Cardiovascular: Heart: Heart Weight, Absolute + Cardiovascular: Heart: Heart Weight, Relative + Endocrine: Adrenal: Adrenal Gland Weight, …): 83700 mg/m3
- LOAEL [11]: 279000 mg/m3
- NOAEL [11]: 83700 mg/m3
- LOAEL [12]: 83700 mg/m3
- NOAEL [12]: 27900 mg/m3
- NEL (subchronic, duration: 90 days, F, Adrenal: Adrenal Gland Weight, Absolute + Adrenal: Adrenal Gland Weight, Relative + Blood: Hematology, Unspecified + Brain: Brain Weight, …): 279000 mg/m3
- LEL [13]: 279000 mg/m3
- NEL [13]: 83700 mg/m3
- LOAEL (subchronic, duration: 90 days, M, Crl:CD BR, Cardiovascular: Heart: Heart Weight, Absolute + Cardiovascular: Heart: Heart Weight, Relative + Endocrine: Adrenal: Adrenal Gland Weight, …): 83700 mg/m3
- LOAEL [14]: 279000 mg/m3
- NOAEL [14]: 83700 mg/m3
- LOAEL [15]: 83700 mg/m3
- NOAEL [15]: 27900 mg/m3
- NEL (subchronic, duration: 90 days, M, Adrenal: Adrenal Gland Weight, Absolute + Adrenal: Adrenal Gland Weight, Relative + Blood: Hematology, Unspecified + Brain: Brain Weight, …): 279000 mg/m3
- LEL [16]: 83700 mg/m3
- NEL [16]: 27900 mg/m3
